Compound `CCN(Cc1ccc(C(C)C)cc1)c1ccc(-c2csc(CN(CC(=O)O)Cc3ccc(C(C)C)cc3)n2)cc1` [Example 3-44] had a melting point of 74 to 78 °C.
`CC(C)c1ccc(CN(CC(=O)O)Cc2nc(-c3ccc(N(Cc4ccc(C(C)C)cc4)C(C)C)cc3)cs2)cc1` [Example 3-45] showed a melting point of 77 to 82 °C.
In turn, `CC(C)c1ccc(CN(c2ccc(-c3csc(CN(CC(=O)O)Cc4ccc(C(C)(C)C)cc4)n3)cc2)C(C)C)cc1` [Example 3-46] gave a melting point of 82 to 87 °C.
`CC(C)Cc1ccc(CN(C)c2ccc(-c3csc(CN(CC(=O)O)Cc4ccc(Cl)cc4)n3)cc2)cc1` [Example 3-47] registered a melting point of 153 to 157 °C.
Under `CCCC(CCC)c1ccc(CN(CC(=O)O)Cc2nc(-c3ccc(N(C)Cc4ccccc4)cc3)cs2)cc1` [Example 3-48] stands 137 to 140 °C; under `CN(Cc1ccccc1)c1ccc(-c2csc(CN(CC(=O)O)Cc3ccc(Cl)cc3)n2)cc1` [Example 3-49], 140 to 142 °C; under `CN(Cc1ccccc1)c1ccc(-c2csc(CN(CC(=O)O)Cc3ccccc3Cl)n2)cc1` [Example 3-50], 132 to 134 °C.
In turn, `CN(Cc1ccccc1)c1ccc(-c2csc(CN(CC(=O)O)Cc3ccc(Cl)c(Cl)c3)n2)cc1` [Example 3-51] yielded a melting point of 69 to 72 °C.
On to `CN(Cc1ccccc1)c1ccc(-c2csc(CN(CC(=O)O)Cc3cccc4ccccc34)n2)cc1` [Example 3-54], for which the melting point was 78 to 83 °C.
Take `CN(Cc1ccccc1)c1ccc(-c2csc(CN(CC(=O)O)Cc3ccc4ccccc4n3)n2)cc1` [Example 3-55]: the melting point was in the range of 144 to 147 °C.
Under `CN(Cc1ccccc1)c1ccc(-c2csc(CN(CC(=O)O)C(=O)Cc3csc4ccccc34)n2)cc1` [Example 3-56] stands 186 to 188 °C; under `CC(C)Cc1ccc(CN(C)c2ccc(-c3csc(CN(CC(=O)O)C(=O)Cc4ccc(Cl)cc4)n3)cc2)cc1` [Example 3-57], 150 to 152 °C.
Regarding `CC(C)CC(=O)N(CC(=O)O)Cc1nc(-c2ccc(N(C)Cc3ccc(CC(C)C)cc3)cc2)cs1` [Example 3-59], the melting point lay in the range of 117 to 118 °C.
Under `CN(Cc1ccc(CC(C)(C)C)cc1)c1ccc(-c2csc(CN(CC(=O)O)C(=O)Nc3ccccc3)n2)cc1` [Example 3-60] stands 152 to 153 °C; under `CC(C)Cc1ccc(CN(C)c2ccc(-c3csc(CN(CC(=O)O)C(=O)c4ccccc4)n3)cc2)cc1` [Example 3-61], 143 to 145 °C; under `CCCC(CCC)c1ccc(CN(C)c2ccc(-c3csc(CN(CC(=O)O)C(=O)c4ccc(C)cc4)n3)cc2)cc1` [Example 3-62], 114 to 117 °C.
Under `CCCC(CCC)c1ccc(CN(C)c2ccc(-c3csc(CN(CC(=O)[O-])C(=O)c4ccc(C(C)C)cc4)n3)cc2)cc1.[Na+]` [Example 3-63] stands 183 to 188 °C; under `CN(Cc1ccc(C2CCCCC2)cc1)c1ccc(-c2csc(CN3CCCC(C(=O)O)C3)n2)cc1` (stereo not shown) [Example 3-66], 176 to 180 °C.
For the compound `CC(C)CCC1(C(=O)O)CCN(Cc2nc(-c3ccc(N(C)Cc4ccc(C5CCCCC5)cc4)cc3)cs2)CC1` [Example 3-68], the melting point is 233 to 235 °C.
Under `CC(C)Cc1ccc(CN(C)c2ccc(-c3csc(CN4Cc5ccccc5CC4C(=O)O)n3)cc2)cc1` (stereo not shown) [Example 3-72] stands 168 to 170 °C.
Under `CN(Cc1ccc(CC(C)(C)C)cc1)c1ccc(-c2csc(CN3Cc4ccccc4CC3C(=O)O)n2)cc1` (stereo not shown) [Example 3-74] stands 175 to 177 °C; under `CN(Cc1ccc(C2CCCCC2)cc1)c1ccc(-c2csc(N(C)Cc3ccc(C(=O)O)o3)n2)cc1` [Example 3-75], 158 to 161 °C; under `CN(Cc1ccc(C2CCCCC2)cc1)c1ccc(-c2csc(CNC(C(=O)O)c3ccccc3)n2)cc1` (stereo not shown) [Example 3-77], 183 to 186 °C.
Then `CC(NCc1nc(-c2ccc(N(C)Cc3ccc(C4CCCCC4)cc3)cc2)cs1)C(=O)O` (stereo not shown) [Example 3-78], with 135 to 138 °C; and `CC(C)Cc1ccc(CN(C)c2ccc(-c3csc(CNC(Cc4ccc(Cl)cc4)C(=O)O)n3)cc2)cc1` (stereo not shown) [Example 3-79], with 199 to 204 °C; and `CN(CC(=O)O)Cc1nc(-c2ccc(N(C)Cc3ccc(C4CCCCC4)cc3)cc2)cs1` [Example 3-80], with 152 to 155 °C.
The compound `CN(Cc1ccc(C2CCCCC2)cc1)c1ccc(-c2csc(CN(C)c3ccc(C(=O)O)cn3)n2)cc1` [Example 3-84] returned a melting point of 226 to 228 °C.
Take `CC(C)Cc1ccc(CN(C)c2ccc(-c3csc(CN(C)C(Cc4ccccc4)C(=O)O)n3)cc2)cc1` (stereo not shown) [Example 3-85]: the melting point fell in the range of 138 to 139 °C.
In the case of `CN(Cc1ccc(CC(C)(C)C)cc1)c1ccc(-c2csc(CN(C)C(C(=O)O)c3ccccc3)n2)cc1` (stereo not shown) [Example 3-88], the melting point fell in the range of 171 to 173 °C.
Under `CN(Cc1ccc(CC(C)(C)C)cc1)c1ccc(-c2csc(CN(C)C(Cc3ccccc3)C(=O)O)n2)cc1` (stereo not shown) [Example 3-89] stands 160 to 161 °C.
As to `CC(C)CCN(CC(=O)O)Cc1nc(-c2ccc(N(C)Cc3ccc(C4CCCCC4)cc3)cc2)cs1` [Example 3-91], the melting point fell in the range of 153 to 154 °C.
In the case of `CC(C)CCN(CC(=O)O)Cc1nc(-c2ccc(N(C)Cc3ccc(CC(C)C)cc3)cc2)cs1` [Example 3-93], the melting point lay in the range of 155 to 156 °C.
For the compound `CCCC(CCC)c1ccc(CN(C)c2ccc(-c3csc(COc4cncc(C(=O)O)c4)n3)cc2)cc1` [Example 3-94], the melting point fell in the range of 178 to 181 °C.
Then `CCCC(CCC)c1ccc(CN(C)c2ccc(-c3csc(COc4ccc(C(=O)O)cc4)n3)cc2)cc1` [Example 3-95], with 175 to 177 °C; and `CCCC(CCC)c1ccc(CN(C)c2ccc(-c3csc(CSc4ccc(C(=O)O)cc4)n3)cc2)cc1` [Example 3-96], with 126 to 127 °C.
Then `CN(Cc1ccc(C2CCCCC2)cc1)c1ccc(-c2csc(CNS(=O)(=O)c3ccc(C(=O)O)cc3)n2)cc1` [Example 3-97], with 202 to 203 °C; and `CN(Cc1ccc(C2CCC(C)(C)CC2)cc1)c1ccc(-c2csc(CN(C)S(=O)(=O)CC(=O)O)n2)cc1` [Example 3-99], with 184 to 190 °C.
Under `CN(Cc1ccc(C2CCCCC2)cc1)c1ccc(-c2csc(CN(C)S(=O)(=O)c3cccc(C(=O)O)c3)n2)cc1` [Example 3-101] stands 164 to 166 °C.
Regarding `CN(Cc1ccc(C2CCCCC2)cc1)c1ccc(-c2csc(CN(C)S(=O)(=O)CC(=O)O)n2)cc1` [Example 3-102], the melting point fell in the range of 178 to 183 °C.
Then `CC(C)CN(Cc1nc(-c2ccc(N(C)Cc3ccc(C4CCCCC4)cc3)cc2)cs1)S(=O)(=O)CC(=O)O` [Example 3-104], with 104 to 110 °C; and `CN(Cc1nc(-c2ccc(N(C)Cc3ccc(C4CCCCC4)cc3)cc2)cs1)C(=O)c1ccc(C(=O)O)cc1` [Example 3-107], with 162 to 164 °C; and `CN(Cc1nc(-c2ccc(N(C)Cc3ccc(C4CCCCC4)cc3)cc2)cs1)C(=O)NCC(=O)O` [Example 3-109], with 149 to 150 °C.
Consider `O=C(O)CN(CC1CCCCC1)c1nc(-c2nc3ccc(OCc4ccc(Cl)c(Cl)c4)cc3o2)cs1` [Example 3-110], for which the melting point lay within 198 to 200 °C.

The melting point is the temperature of the solid-liquid transition.

(Values after US20060122181A1, “Heteroaromatic pentacyclic compound and medicinal use thereof” (Japan Tobacco Inc., priority 2003, published 2006).)
